Data taken from patent US10945992B1, “Dosage forms of rofecoxib and related methods” (Tremeau Pharmaceuticals, Inc., priority 2019, dated 2021).
Where two headings read alike, the source gives them in different places.

Experiment: TRM-201-PK-102 single-dose four-period crossover pharmacokinetic study, fasted healthy subjects
Assay type: in vivo, human
Details: human, plasma, oral; for Cmax / AUC(0-inf): 102 study
Method: A Single-Dose, Open-Label, Phase 1, Four-Period Crossover Pharmacokinetic Study of TRM-201 (Rofecoxib) 12.5 mg, 17.5 mg, 20 mg and 25 mg Administered to Healthy Subjects in a Fasting State, with Comparison to Historical Pharmacokinetic Parameters of Previously Marketed Rofecoxib (“TRM-201-PK-102” or “102 PK Study”)
This was a single-center, open-label four-period crossover PK study of TRM-201. The study included 24 subjects who received TRM-201 as a single dose of 12.5 mg, 17.5 mg, 20 mg and 25 mg to assess the PK of TRM-201 in healthy volunteers under fasted conditions. Subjects were randomized to one of four treatment sequences. The PK data from the current study along with the data from the TRM-201-PK-101 study (Example 4) was used to compare to historical pharmacokinetic parameters of previously marketed rofecoxib, all in a fasted state.
In each of the four dosing periods, subjects fasted overnight for at least 10 hours before study drug dosing. While fasting, subjects had nothing to eat and only water to drink. Water was permitted as desired, except for the period between 1 hour before and 1 hour after study drug dosing (excepting as permitted for dosing). After the 2-hour PK blood sample, subjects were allowed one 250-mL cup of clear apple juice. After the 4-hour PK blood sample, subjects were served a light lunch. Following the light lunch, subjects received standardized meals according to the clinic's standard procedures that were scheduled at consistent times and at least 15 minutes before or 15 minutes after PK sampling time points. Blood was withdrawn for PK analysis at predefined time points. For each dosing period the last time point was 120 hours after dosing with study drug (Day 6). After the 120 hour PK sample, the EOP procedures was completed, subjects remained in-clinic for the in-between dose period day (Days 7, 14, and 21) and began the next dosing period starting with an overnight fast for at least 10 hours on Day −1 of the subsequent dosing period. Pharmacokinetic and safety endpoints were evaluated.
The study drug, TRM-201, was an immediate-release tablet that contained 12.5 mg rofecoxib, 17.5 mg rofecoxib, 20 mg rofecoxib or 25 mg rofecoxib. The 7.25-mm diameter tablets were off-white, round, and uncoated with no markings. TRM-201 tablets were for oral administration.
For each sample, approximately 3 mL of blood were drawn. The samples were obtained by a straight stick or via an in-dwelling intravenous (IV) catheter in a forearm vein. Additional details for the collection, processing, storage, and shipping of PK samples were provided in the study manual.
Pharmacokinetic samples will be analyzed using a validated assay for rofecoxib in human plasma. Assay results and validation details will be provided in a separate bioanalytical report. The following PK parameters for rofecoxib will be calculated as primary endpoints using standard noncompartmental methods: AUC0-∞ and Cmax. Secondary endpoints include Tmax, and t1/2. Additional PK parameters (e.g., CL/F, and Vd/F) will also be calculated using standard noncompartmental methods.
Individual plasma concentrations for rofecoxib and PK sampling time deviation data will be presented in a data listing. Plasma concentration data will be summarized by time point using the following descriptive statistics: number of subjects, arithmetic mean, SD, coefficient of variation (CV), geometric mean, natural-log-scale SD, geometric CV, median, minimum, and maximum. Individual plasma concentration versus actual time profiles were presented on both linear and semilogarithmic scales. Additionally, arithmetic mean concentration versus scheduled time profiles were presented on linear scales and geometric means on semilogarithmic scales.
The PK parameters of rofecoxib were analyzed based on the actual sampling times. […]

[1] = 25 mg, read-out: arithmetic mean plasma concentration
[2] = 25 mg, read-out: geometric mean plasma concentration

Q: Which Cmax (25 mg, 41-52 years, read-out: arithmetic mean Cmax) does the source give for CS(=O)(=O)c1ccc(C2=C(c3ccccc3)C(=O)OC2)cc1 [TRM-201, 4-[4-(methylsulfonyl)phenyl]-3-phenyl-2(5H)-furanone] here?
A: 326 ng/mL

Q: What about the AUC(0-inf) (25 mg, 41-52 years, read-out: geometric mean AUC0-∞) of the same compound?
A: 4580 ng·h/mL

Q: What about the Cmax (25 mg, 41-52 years, read-out: geometric mean Cmax) of the same compound?
A: 321 ng/mL

Q: And the AUC(0-inf) (25 mg, 53-60 years, read-out: arithmetic mean AUC0-∞)?
A: 4940 ng·h/mL

Q: And the Cmax (25 mg, 53-60 years, read-out: arithmetic mean Cmax)?
A: 354 ng/mL

Q: And the AUC(0-inf) (25 mg, 53-60 years, read-out: geometric mean AUC0-∞)?
A: 4880 ng·h/mL

Q: What about the Cmax (25 mg, 53-60 years, read-out: geometric mean Cmax) of the same compound?
A: 347 ng/mL

Q: What about the AUC(0-inf) (25 mg, Black or African-American subjects, read-out: arithmetic mean AUC0-∞) of the same compound?
A: 3990 ng·h/mL

Q: And the Cmax (25 mg, Black or African-American subjects, read-out: arithmetic mean Cmax)?
A: 340 ng/mL

Q: What about the AUC(0-inf) (25 mg, Black or African-American subjects, read-out: geometric mean AUC0-∞) of the same compound?
A: 3940 ng·h/mL

Q: What about the Cmax (25 mg, Black or African-American subjects, read-out: geometric mean Cmax) of the same compound?
A: 339 ng/mL

Q: And the AUC(0-inf) (25 mg, Hispanic or Latino subjects, read-out: arithmetic mean AUC0-∞)?
A: 4980 ng·h/mL

Q: And the Cmax (25 mg, Hispanic or Latino subjects, read-out: arithmetic mean Cmax)?
A: 358 ng/mL

Q: And the AUC(0-inf) (25 mg, Hispanic or Latino subjects, read-out: geometric mean AUC0-∞)?
A: 4870 ng·h/mL

Q: And the Cmax (25 mg, Hispanic or Latino subjects, read-out: geometric mean Cmax)?
A: 351 ng/mL

Q: What about the AUC(0-inf) (25 mg, White subjects, read-out: arithmetic mean AUC0-∞) of the same compound?
A: 4800 ng·h/mL

Q: And the Cmax (25 mg, White subjects, read-out: arithmetic mean Cmax)?
A: 351 ng/mL

Q: And the AUC(0-inf) (25 mg, White subjects, read-out: geometric mean AUC0-∞)?
A: 4650 ng·h/mL

Q: And the Cmax (25 mg, White subjects, read-out: geometric mean Cmax)?
A: 341 ng/mL

Q: What about the AUC(0-inf) (25 mg, body weight 47-70 kg, read-out: arithmetic mean AUC0-∞) of the same compound?
A: 4450 ng·h/mL

Q: What about the Cmax (25 mg, body weight 47-70 kg, read-out: arithmetic mean Cmax) of the same compound?
A: 385 ng/mL

Q: And the AUC(0-inf) (25 mg, body weight 47-70 kg, read-out: geometric mean AUC0-∞)?
A: 4310 ng·h/mL

Q: What about the Cmax (25 mg, body weight 47-70 kg, read-out: geometric mean Cmax) of the same compound?
A: 376 ng/mL

Q: What about the AUC(0-inf) (25 mg, body weight 70.1-77 kg, read-out: arithmetic mean AUC0-∞) of the same compound?
A: 5470 ng·h/mL

Q: What about the Cmax (25 mg, body weight 70.1-77 kg, read-out: arithmetic mean Cmax) of the same compound?
A: 371 ng/mL

Q: And the AUC(0-inf) (25 mg, body weight 70.1-77 kg, read-out: geometric mean AUC0-∞)?
A: 5410 ng·h/mL

Q: And the Cmax (25 mg, body weight 70.1-77 kg, read-out: geometric mean Cmax)?
A: 368 ng/mL

Q: And the AUC(0-inf) (25 mg, body weight 77.1-90 kg, read-out: arithmetic mean AUC0-∞)?
A: 4130 ng·h/mL

Q: And the Cmax (25 mg, body weight 77.1-90 kg, read-out: arithmetic mean Cmax)?
A: 299 ng/mL

Q: What about the AUC(0-inf) (25 mg, body weight 77.1-90 kg, read-out: geometric mean AUC0-∞) of the same compound?
A: 4040 ng·h/mL

Q: And the Cmax (25 mg, body weight 77.1-90 kg, read-out: geometric mean Cmax)?
A: 294 ng/mL

Q: What about the AUC(0-inf) (25 mg, non-Hispanic or non-Latino subjects, read-out: arithmetic mean AUC0-∞) of the same compound?
A: 4280 ng·h/mL

Q: And the Cmax (25 mg, non-Hispanic or non-Latino subjects, read-out: arithmetic mean Cmax)?
A: 340 ng/mL

Q: What about the AUC(0-inf) (25 mg, non-Hispanic or non-Latino subjects, read-out: geometric mean AUC0-∞) of the same compound?
A: 4150 ng·h/mL

Q: What about the Cmax (25 mg, non-Hispanic or non-Latino subjects, read-out: geometric mean Cmax) of the same compound?
A: 331 ng/mL

Q: And the concentration at 15 minutes [1]?
A: 5.63 ng/mL

Q: What about the concentration at 15 minutes [2] of the same compound?
A: 1.37 ng/mL

Q: And the concentration at 45 minutes [1]?
A: 159 ng/mL

Q: What about the concentration at 45 minutes [2] of the same compound?
A: 97.6 ng/mL

Q: And the AUC(0-inf) (male, 12.5 mg, males, read-out: arithmetic mean AUC0-∞)?
A: 1750 ng·h/mL

Q: And the Cmax (male, 12.5 mg, males, read-out: arithmetic mean Cmax)?
A: 132 ng/mL

Q: And the AUC(0-inf) (male, 12.5 mg, males, read-out: geometric mean AUC0-∞)?
A: 1580 ng·h/mL

Q: What about the Cmax (male, 12.5 mg, males, read-out: geometric mean Cmax) of the same compound?
A: 127 ng/mL

Q: And the AUC(0-inf) (male, 17.5 mg, males, read-out: arithmetic mean AUC0-∞)?
A: 2860 ng·h/mL

Q: What about the Cmax (male, 17.5 mg, males, read-out: arithmetic mean Cmax) of the same compound?
A: 201 ng/mL

Q: And the AUC(0-inf) (male, 17.5 mg, males, read-out: geometric mean AUC0-∞)?
A: 2710 ng·h/mL

Q: What about the Cmax (male, 17.5 mg, males, read-out: geometric mean Cmax) of the same compound?
A: 196 ng/mL

Q: And the AUC(0-inf) (male, 20 mg, males, read-out: arithmetic mean AUC0-∞)?
A: 3130 ng·h/mL

Q: And the Cmax (male, 20 mg, males, read-out: arithmetic mean Cmax)?
A: 234 ng/mL

Q: What about the AUC(0-inf) (male, 20 mg, males, read-out: geometric mean AUC0-∞) of the same compound?
A: 2940 ng·h/mL

Q: What about the Cmax (male, 20 mg, males, read-out: geometric mean Cmax) of the same compound?
A: 224 ng/mL

Q: And the AUC(0-inf) (male, 25 mg, males, read-out: arithmetic mean AUC0-∞)?
A: 4080 ng·h/mL

Q: And the Cmax (male, 25 mg, males, read-out: arithmetic mean Cmax)?
A: 302 ng/mL

Q: What about the AUC(0-inf) (male, 25 mg, males, read-out: geometric mean AUC0-∞) of the same compound?
A: 3940 ng·h/mL

Q: And the Cmax (male, 25 mg, males, read-out: geometric mean Cmax)?
A: 298 ng/mL

Q: What about the AUC(0-inf) (male, 25 mg, printed 'For males' (second statement, after the females' arithmetic means), read-out: geometric mean AUC0-∞) of the same compound?
A: 5020 ng·h/mL

Q: What about the Cmax (male, 25 mg, printed 'For males' (second statement, after the females' arithmetic means), read-out: geometric mean Cmax) of the same compound?
A: 382 ng/mL
